# How the values were obtained:
# [1] = Ex vivo metabolite studies; type: in vivo; details: SD rats; for Ex vivo metabolite analysis, % of tailored L- and D-1MTrp entity in Brain / Ex vivo metabolite analysis, % of tailored L- and D-1MTrp entity in Pancreas / Ex vivo metabolite analysis, % of tailored L- and D-1MTrp entity in Plasma: HPLC, mean ± SEM, n = 4
# Method: To validate the derivation of radioactivity into the relevant organs and tissues, we assessed the metabolites of both radiolabelled isomers in the blood, brain, and pancreas of rats. […] Few radioactive metabolites were detected in these three tissues at 15 and 60 min after ^11C-L-1MTrp and ^11C-D-1MTrp injection.
# SD rats were injected with ^11C-L-1MTrp or ^11C-D-1MTrp (70–74 MBq, 0.4–0.6 nmol) via a lateral tail vein. The animals were sacrificed by cervical dislocation at 15 and 60 min after the injection. Blood was collected and centrifuged at 15000 rpm for 2 min at 4 °C to separate the plasma. Brain and pancreas were rapidly removed, then homogenized in equal volumes of 1 M HClO4 solution with a Silent Crusher S homogenizer (Heidolph Instruments). Plasma and homogenates of brain and pancreas from rats were deproteinized and then analyzed by HPLC as described in the stability assay in vitro.
# [2] = PET, rats
# Method: Emission scans were acquired in three-dimensional list mode with an energy window of 350–650 keV under isoflurane anesthesia, from 0 to 60 min after radioprobe administration. All list-mode acquisition data were sorted into three-dimensional sinograms, which were then Fourier-rebinned into two-dimensional sonograms (frames × min: 4 × 1, 8 × 2, 8 × 5), and corrections for scanner dead time, randoms, and decay of the injected radioprobe. Dynamic images were reconstructed with filtered back-projection using a Hanning filter and a Nyquist cut-off of 0.5 cycles/pixel. Immediately after completion of PET scans, contrast-enhanced CT scans were performed in the rats by using the small-animal CT system (R_mCT2; Rigaku, Tokyo) after injection of 1 mL of non-ionic contrast medium (Iopamiron 370, Bayer, Osaka). The scan conditions included radiation parameters of 200 μA and 90 kV, FOV of 60 mm, and acquisition time of 34 s. CT images were collected, reconstructed, and observed using I-View-R software (Rigaku, The Woodlands, TX). Averaged CT attenuation images and dynamic PET images were reconstructed and fused using the Siemens Inveon Research Workplace (IRW) 4.0 software.
# Regions of interest (ROI) in major organs and tissues were drawn in the PET/CT fusion images by manual outlining the organs and tissues in the CT images throughout the image slices by using IRW 4.0 software. The average radioactivity concentration was obtained from mean pixel values in the ROI volume. Regional uptake of radioactivity was decay-corrected to the injection time and expressed as the standardized uptake value (SUV), normalized for injected radioactivity and body weight. SUV was calculated as SUV = (radioactivity per cubic centimeter tissue/injected radioactivity) × body weight in grams. TACs of the radioprobes in individual organ and tissue were determined. Values of area under time-activity curves (AUC2–60 min, SUV × min) were calculated from 2 to 60 min post-injection to minimize the early perfusion effects.
# [3] = In vitro stability assay in rat plasma; type: in vitro ADME; details: 37 °C, 90 min incubation, HPLC analysis
# Method: To determine the in vitro property of the two newly-developed radioprobes, we performed plasma stability studies by HPLC analysis at 37 °C for 90 min. […] More than 95% of ^11C-L-1Mtrp and ^11C-D-1Mtrp remained intact and no detectable metabolites were found at least 90 min after plasma incubation in vitro.
# ^11C-L-1MTrp and ^11C-D-1MTrp (70–74 MBq, 0.4−0.6 nmol) was dissolved in 2 mL of freshly isolated rat plasma and incubated at 37 °C for 90 min. After 0, 30, 60 and 90 min, an aliquot of 300 μL incubated mixture was taken, proteins in plasma were precipitated with equal volumes of 1 M HClO4 solution, followed by centrifugation at 15000 rpm for 2 min at 4 °C. The supernatant was collected and analyzed by HPLC (Capcell Pack UG80 column, 4.6 mm i.d. × 250 mm) with […] phosphate buffer/CH3CN (8.5/1.5, v/v) at a flow rate of 1 mL/min.
# [4] = Ex vivo biodistribution studies; details: SD rats; for Biodistribution, radioactivity in Blood / Biodistribution, radioactivity in Brain / Biodistribution, radioactivity in Heart / Biodistribution, radioactivity in Intestine / Biodistribution, radioactivity in Liver / Biodistribution, radioactivity in Lung / Biodistribution, radioactivity in Muscle / Biodistribution, radioactivity in Pancreas / Biodistribution, radioactivity in Spleen / Biodistribution, radioactivity in Kidney: mean ± SEM, n = 4
# From the text: Major organs and tissues (blood, heart, lung, liver, pancreas, spleen, kidney, intestine, muscle, and brain), were promptly excised, harvested, and weighed. Radioactivity was counted using a γ-counter and expressed as a percentage of the injected dose per gram of wet tissue (%ID/g). All radioactivity measurements were corrected for decay.
compound,measurement,setting,value
"[11CH3]n1cc(C[C@@H](N)C(=O)O)c2ccccc21 [^11C-D-1MTrp, 1-N-^11C-methyl-D-tryptophan]","Radioactivity in the brain, pancreas, and blood associated with L- and D-1MTrp",[1]; 15 and 60 min after injection,more than 94%
same,"Ex vivo metabolite analysis, % of tailored L- and D-1MTrp entity in Brain",[1]; 15 min after injection,95.06 ± 0.38%
same,"Ex vivo metabolite analysis, % of tailored L- and D-1MTrp entity in Pancreas",[1]; 15 min after injection,94.08 ± 0.51%
same,"Ex vivo metabolite analysis, % of tailored L- and D-1MTrp entity in Plasma",[1]; 15 min after injection,94.45 ± 0.03%
same,"Ex vivo metabolite analysis, % of tailored L- and D-1MTrp entity in Brain",[1]; 60 min after injection,98.16 ± 0.47%
same,"Ex vivo metabolite analysis, % of tailored L- and D-1MTrp entity in Pancreas",[1]; 60 min after injection,96.31 ± 0.48%
same,"Ex vivo metabolite analysis, % of tailored L- and D-1MTrp entity in Plasma",[1]; 60 min after injection,98.81 ± 0.25%
same,SUV in the kidney,"[2]; 60 min after injection, mean ± SEM, four rats",1.79 ± 0.07
same,SUV in the other organs (other than kidneys),"[2]; 60 min after injection, span over organs",0.20−0.61
same,Maximum accumulation (SUV) in the kidneys,[2]; within 5 min after administration,6.03 ± 0.43
same,Fraction remaining intact in rat plasma,[3],More than 95%
same,"Biodistribution, radioactivity in Blood",[4]; 1 min after injection,1.47 ± 0.02 %ID/g tissue
same,"Biodistribution, radioactivity in Brain",[4]; 1 min after injection,0.04 ± 0.00 %ID/g tissue
same,"Biodistribution, radioactivity in Heart",[4]; 1 min after injection,0.58 ± 0.02 %ID/g tissue
same,"Biodistribution, radioactivity in Intestine",[4]; 1 min after injection,0.93 ± 0.02 %ID/g tissue
same,"Biodistribution, radioactivity in Liver",[4]; 1 min after injection,1.24 ± 0.03 %ID/g tissue
same,"Biodistribution, radioactivity in Lung",[4]; 1 min after injection,0.79 ± 0.03 %ID/g tissue
same,"Biodistribution, radioactivity in Muscle",[4]; 1 min after injection,0.12 ± 0.00 %ID/g tissue
same,"Biodistribution, radioactivity in Pancreas",[4]; 1 min after injection,0.76 ± 0.07 %ID/g tissue
same,"Biodistribution, radioactivity in Spleen",[4]; 1 min after injection,0.62 ± 0.02 %ID/g tissue
same,"Biodistribution, radioactivity in Blood",[4]; 5 min after injection,0.79 ± 0.03 %ID/g tissue
same,"Biodistribution, radioactivity in Brain",[4]; 5 min after injection,0.05 ± 0.01 %ID/g tissue
same,"Biodistribution, radioactivity in Heart",[4]; 5 min after injection,0.55 ± 0.02 %ID/g tissue
same,"Biodistribution, radioactivity in Intestine",[4]; 5 min after injection,0.68 ± 0.02 %ID/g tissue
same,"Biodistribution, radioactivity in Liver",[4]; 5 min after injection,0.97 ± 0.02 %ID/g tissue
same,"Biodistribution, radioactivity in Lung",[4]; 5 min after injection,0.60 ± 0.02 %ID/g tissue
same,"Biodistribution, radioactivity in Muscle",[4]; 5 min after injection,0.26 ± 0.01 %ID/g tissue
same,"Biodistribution, radioactivity in Pancreas",[4]; 5 min after injection,1.03 ± 0.15 %ID/g tissue
same,"Biodistribution, radioactivity in Spleen",[4]; 5 min after injection,0.51 ± 0.02 %ID/g tissue
same,"Biodistribution, radioactivity in Blood",[4]; 15 min after injection,0.49 ± 0.01 %ID/g tissue
same,"Biodistribution, radioactivity in Brain",[4]; 15 min after injection,0.08 ± 0.00 %ID/g tissue
same,"Biodistribution, radioactivity in Heart",[4]; 15 min after injection,0.52 ± 0.02 %ID/g tissue
same,"Biodistribution, radioactivity in Intestine",[4]; 15 min after injection,0.53 ± 0.00 %ID/g tissue
same,"Biodistribution, radioactivity in Kidney",[4]; 15 min after injection,3.66 ± 0.15 %ID/g tissue
same,"Biodistribution, radioactivity in Liver",[4]; 15 min after injection,0.64 ± 0.01 %ID/g tissue
same,"Biodistribution, radioactivity in Lung",[4]; 15 min after injection,0.46 ± 0.02 %ID/g tissue
same,"Biodistribution, radioactivity in Muscle",[4]; 15 min after injection,0.35 ± 0.01 %ID/g tissue
same,"Biodistribution, radioactivity in Pancreas",[4]; 15 min after injection,1.01 ± 0.06 %ID/g tissue
same,"Biodistribution, radioactivity in Spleen",[4]; 15 min after injection,0.48 ± 0.01 %ID/g tissue
same,"Biodistribution, radioactivity in Blood",[4]; 30 min after injection,0.40 ± 0.01 %ID/g tissue
same,"Biodistribution, radioactivity in Brain",[4]; 30 min after injection,0.11 ± 0.00 %ID/g tissue
same,"Biodistribution, radioactivity in Heart",[4]; 30 min after injection,0.42 ± 0.02 %ID/g tissue
same,"Biodistribution, radioactivity in Intestine",[4]; 30 min after injection,0.40 ± 0.01 %ID/g tissue
same,"Biodistribution, radioactivity in Kidney",[4]; 30 min after injection,2.12 ± 0.16 %ID/g tissue
same,"Biodistribution, radioactivity in Liver",[4]; 30 min after injection,0.47 ± 0.01 %ID/g tissue
same,"Biodistribution, radioactivity in Lung",[4]; 30 min after injection,0.37 ± 0.01 %ID/g tissue
same,"Biodistribution, radioactivity in Muscle",[4]; 30 min after injection,0.38 ± 0.03 %ID/g tissue
same,"Biodistribution, radioactivity in Pancreas",[4]; 30 min after injection,1.21 ± 0.05 %ID/g tissue
same,"Biodistribution, radioactivity in Spleen",[4]; 30 min after injection,0.40 ± 0.02 %ID/g tissue
same,"Biodistribution, radioactivity in Blood",[4]; 60 min after injection,0.32 ± 0.01 %ID/g tissue
same,"Biodistribution, radioactivity in Brain",[4]; 60 min after injection,0.15 ± 0.01 %ID/g tissue
same,"Biodistribution, radioactivity in Heart",[4]; 60 min after injection,0.30 ± 0.01 %ID/g tissue
same,"Biodistribution, radioactivity in Intestine",[4]; 60 min after injection,0.32 ± 0.01 %ID/g tissue
same,"Biodistribution, radioactivity in Kidney",[4]; 60 min after injection,1.16 ± 0.03 %ID/g tissue
same,"Biodistribution, radioactivity in Liver",[4]; 60 min after injection,0.37 ± 0.01 %ID/g tissue
same,"Biodistribution, radioactivity in Lung",[4]; 60 min after injection,0.28 ± 0.01 %ID/g tissue
same,"Biodistribution, radioactivity in Muscle",[4]; 60 min after injection,0.33 ± 0.01 %ID/g tissue
same,"Biodistribution, radioactivity in Pancreas",[4]; 60 min after injection,1.03 ± 0.06 %ID/g tissue
same,"Biodistribution, radioactivity in Spleen",[4]; 60 min after injection,0.32 ± 0.01 %ID/g tissue
same,Measured uptake in organs other than kidneys and pancreas,"[4]; 60 min after radioprobe injection, span over organs",0.15−0.37 % ID/g

# From publication PMC4639751, “Development of 1-N-^11C-Methyl-L- and -D-Tryptophan for pharmacokinetic imaging of the immune checkpoint inhibitor 1-Methyl-Tryptophan” (Scientific Reports, 2015)
